Measured values taken from patent US20100063085A1, “METHOD OF TREATING LEARNING IMPAIRMENT IN DOWN'S SYNDROME SUBJECTS” (University Court of The University of Dundee, priority 2008, published 2010).
Like-named read-outs stand apart in the source and are kept apart here.

Tests used:
PHK = PHK 33P kinase assay; format: biochemical
Method: (§1) All assays (25.5 μl) were carried out at room temperature (21° C.) and were linear with respect to time and enzyme concentrations under the conditions used. Assays were performed for 30 minutes except assays for LCK and PKB which were performed for 15 minutes using Multidrop Micro reagent dispensers (Thermo Electron Corporation, Waltham, Mass. 02454, USA) in a 96-well format. The concentration of […] [γ-^33P] ATP (800 cpm/pmol) in the assays was one of three concentrations (5, 20 or 50 μM) in order to be at or below Km for ATP for the enzyme. Assays were initiated with MgATP and stopped by addition of 5 μl of 0.5M orthophosphoric acid. Assays were then harvested onto P81 filterplates using a unifilter harvester (PerkinElmer, Boston, Mass. 02118, USA), with a wash buffer of 50 mM orthophosphoric acid. Filterplates were then air dried overnight. 10 μl of Microscint O was added per well prior to counting for radioactivity.
MKK1, JNK/SAPK1c, SAPK2a/p38, SAPK2b/p38β2, SAPK3/p38γ, SAPK4/p38δ, MAPK2/ERK2, MAPKAP-K1β, MAPKAP-K2, MSK1, PRAK, PKA, PKCα, PDK1, SGK, p70S6K, GSK3β, ROCK-II, PRK2, AMPK, CHK1, CHK2, CK2, PHK, LCK, were assayed according to Davies et al., (Davies, S. P., Reddy, H., Caivano, M. and Cohen, P. Biochem. J. 351, 95-105, 2000.
(§2) CSK and CDK2/cyclinA, were assayed according to Bain et al. (Bain J, McLauchlan H, Elliott M, Cohen P. Biochem J. 371, 199-204, 2003., except that ATP concentrations were either 5, 20 or 50 micromolar so that they were at or below the Km for ATP. The ATP concentrations used were as follows, 5 μM for assays of MKK1, SAPK3, SAPK4, GSK3β, PRK2 CK2 20 μm for assays of JNK, SAPK2β, MAPKAP-K2, MSK1, PRAK, PKA, […], PDK1, SGK, p70S6K, ROCK-II, CHK1, CHK2, CSK, CDK2, and 50 μM for assays of SAPK2a, MAPK2/ERK2, AMPK, LCK, PHK and MAPKAP-K1β.

CSK = CSK (Homo sapiens, UniProt P41240); experiment: CSK 33P kinase assay; format: biochemical; settings: read-out: CSK activity as percentage of control without inhibitor
Method: as §1, §2

NEK7 = NEK7 (Homo sapiens, UniProt Q8TDX7); experiment: biochemical; settings: read-out: NEK7 activity as percentage of control without inhibitor
Method: as §1
(§3) The following kinases were assayed against the substrates indicated. Aurora B was assayed against the substrate peptide […] (300 μM), ERK8 and MST-2 were both assayed against MBP (0.33 mg/ml). IKKβ was assayed against the substrate peptide […] (300 μM), JNK3 was assayed against 3 μM ATF2[19-96]. MAPKAP-K3 and PKD1 were both assayed against […] (30 μM), MARK3 was assayed against CHKtide ([…]) substrate peptide (300 μM). MNK1 and MNK2 were both assayed against eIF4E protein (0.5 mg/ml). NEK7 was assayed against […] (300 μM), PIM2 was assayed against […] (300 μM), ΔPH PKBβ-S474D was assayed against Crosstide (30 μM), PLK1 was assayed against […] (300 μM). PRK2 was assayed against Long S6 peptide, […] (30 μM), RSK2 was assayed against […] (30 μM), SRC was assayed against cdc2 peptide, […], (300 μM) and SRPK1 was assayed against peptide […] (300 μM). All enzymes were diluted in 50 mM Tris/HCl pH 7.5, 0.1 mM EGTA, 1 mg/ml BSA, 0.1% β-mercaptoethanol buffer and assayed in an incubation containing 50 mM Tris/HCl pH7.5, 0.1 mM EGTA, 0.1% β-mercaptoethanol, CAMK-1 (5-20 mU) diluted in 50 mM Tris/HCl pH 7.5, 0.1 mM EGTA, 1 mg/ml BSA, 0.1% β-mercaptoethanol is assayed against substrate peptide […] in an incubation containing 50 mM Tris/HCl pH 7.5, 0.1 mM EGTA, 0.5 mM CaCl2, 0.3 μM calmodulin, 0.1% β-mereaptoethanol, 300 μM substrate peptide, 10 mM magnesium acetate and 0.05 mM [^33P-γ-ATP] (500-1000 cpm/pmole). EF2K (5-20 mU) diluted in 50 mM Hepes pH 6.6, 0.1% β-mercaptoethanol, 1 mg/ml BSA is assayed against a substrate peptide […] in an incubation containing 50 mM Hepes pH 6.6, 0.2 mM CaCl2, 0.3 μM Calmodulin, 0.05% b-mercaptoethanol, 300 μM substrate peptide, 10 mM magnesium acetate and 0.05 mM [^33P-γ-ATP] (500-1000 cpm/pmole).

PKBb = PKBb (Homo sapiens, UniProt P31751, S474D); experiment: PKBb 33P kinase assay; format: biochemical; settings: read-out: PKBb activity as percentage of control without inhibitor
Method: as §1, §3
ΔPH-PKBbeta-S474D (5-20 mU diluted in 50 mM Tris pH 7.5, 0.1 mM EGTA, 0.1% β-mercaptoethanol, 1 mg/ml BSA) is assayed against a modified Crosstide peptide ([…]) in a final volume of 25.5 μl containing 50 mM Tris pH 7.5, 0.05% β-mercaptoethanol, 30 μM substrate peptide, 10 mM magnesium acetate and 0.05 mM [^33P- γATP] (50-1000 cpm/pmole) and incubated for 30 min at room temperature.

Chain of PKBb (P31751 120-481 S474D limits assumed): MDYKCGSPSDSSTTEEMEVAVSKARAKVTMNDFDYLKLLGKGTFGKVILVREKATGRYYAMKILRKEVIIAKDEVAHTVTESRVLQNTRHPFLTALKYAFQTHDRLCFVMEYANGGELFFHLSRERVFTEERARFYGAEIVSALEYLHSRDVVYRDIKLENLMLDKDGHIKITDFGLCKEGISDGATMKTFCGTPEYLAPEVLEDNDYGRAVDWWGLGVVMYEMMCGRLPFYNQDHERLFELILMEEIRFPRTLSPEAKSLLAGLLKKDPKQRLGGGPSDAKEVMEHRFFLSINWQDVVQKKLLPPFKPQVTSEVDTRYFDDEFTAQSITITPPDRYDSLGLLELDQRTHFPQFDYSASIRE
Chain of CSK (P41240 whole entry, species assumed): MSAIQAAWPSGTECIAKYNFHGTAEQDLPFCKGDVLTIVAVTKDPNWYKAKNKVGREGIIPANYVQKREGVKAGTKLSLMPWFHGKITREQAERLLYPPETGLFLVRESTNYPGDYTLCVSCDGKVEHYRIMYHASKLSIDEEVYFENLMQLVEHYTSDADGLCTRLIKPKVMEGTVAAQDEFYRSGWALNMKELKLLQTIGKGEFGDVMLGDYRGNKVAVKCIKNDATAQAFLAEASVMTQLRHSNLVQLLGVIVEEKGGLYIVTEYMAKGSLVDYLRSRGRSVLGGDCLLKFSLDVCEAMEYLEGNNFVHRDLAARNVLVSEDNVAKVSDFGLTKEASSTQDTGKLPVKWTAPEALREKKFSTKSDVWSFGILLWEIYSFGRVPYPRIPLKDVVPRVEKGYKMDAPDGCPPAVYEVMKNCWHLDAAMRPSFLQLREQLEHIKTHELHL
Chain of NEK7 (Q8TDX7 whole entry, species assumed): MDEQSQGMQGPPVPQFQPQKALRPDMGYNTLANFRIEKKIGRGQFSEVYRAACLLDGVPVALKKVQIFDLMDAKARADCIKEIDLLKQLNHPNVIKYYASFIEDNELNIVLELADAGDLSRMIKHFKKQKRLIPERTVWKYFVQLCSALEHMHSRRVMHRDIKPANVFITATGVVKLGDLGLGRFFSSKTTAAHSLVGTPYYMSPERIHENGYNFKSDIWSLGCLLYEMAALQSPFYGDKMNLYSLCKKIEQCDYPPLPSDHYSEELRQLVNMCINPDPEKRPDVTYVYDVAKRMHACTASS

SMILES | PHK activity as percentage of control without inhibitor (PHK; inhibitor 1 μM) [%] | PHK activity as percentage of control without inhibitor (PHK; inhibitor 10 μM) [%] | remaining activity at 1 µM (CSK) [%] | remaining activity at 10 µM (CSK) [%] | remaining activity at 1 µM (NEK7; inhibitor 1 μM) [%] | remaining activity at 10 µM (NEK7; inhibitor 10 μM) [%] | remaining activity at 1 µM (PKBb; inhibitor 1 μM) [%] | remaining activity at 10 µM (PKBb; inhibitor 10 μM) [%] | remaining activity at 1 µM (CSK; inhibitor 1 μM) [%] | remaining activity at 10 µM (CSK; inhibitor 10 μM) [%] | remaining activity at 1 µM (NEK7) [%] | remaining activity at 10 µM (NEK7) [%] | remaining activity at 1 µM (PKBb) [%] | remaining activity at 10 µM (PKBb) [%]
COc1ccc2c3c([nH]c2c1)C(C)=NCC3 [Harmaline] | 73 | 88 | 64 | 90 | 95 | 115 | 97 | 96 |  |  |  |  |  | 
CC1=NCCc2c1[nH]c1cc(O)ccc21 [Harmalol] | 101 | 63 |  |  | 83 | 56 | 103 | 77 | 110 | 92 |  |  |  | 
COc1ccc2c(c1)[nH]c1c(C)nccc12 [Harmine] | 103 | 82 | 92 | 101 |  |  |  |  |  |  | 90 | 92 | 94 | 101
